# Assay results: patent US7214792B2 (priority 1999, dated 2007)
# Tested on: LAB-1
# Assay: Antibiotic sensitivity testing of LAB-1
# Type: cell-based
# Conditions: LAB-1 organism
# Description: A variety of biochemical tests were performed in order to identify the species and the genus of organism. The tests included: assessment of growth conditions, culture appearance, cell appearance and staining characteristics, optimal temperature and pH growth range, oxygen requirements, antibiotic sensitivity testing, tests for catalase and oxidase (using TAXOS N ? disks), amino acid utilization as carbon source, nitrogen fixation, motility test, and a variety of commercially available tests from MICRO-ID ? , OXYFERM ? , ENTEROTUBE ? and BIOLOG GN MICROPLATE ? .
row,Compound,Antibiotic Susceptibility Results
1,Penicillin,resistant
2,CC1(C)S[C@@H]2[C@H](NC(=O)[C@H](N)c3ccccc3)C(=O)N2[C@H]1C(=O)O [Ampicillin],resistant
3,Neomycin,sensitive
4,CO[C@@H]1[C@@H](OC(N)=O)[C@@H](O)[C@H](Oc2ccc3c(O)c(NC(=O)c4ccc(O)c(CC=C(C)C)c4)c(=O)oc3c2C)OC1(C)C [Novobiocin],sensitive
5,[H]/N=C(/N)N[C@H]1[C@H](O)[C@@H](O)[C@H](O[C@@H]2O[C@@H](C)[C@](O)(C=O)[C@H]2O[C@@H]2O[C@@H](CO)[C@H](O)[C@@H](O)[C@@H]2NC)[C@@H](N/C(N)=N\[H])[C@@H]1O [Streptomycin],resistant
6,Polymyxin B,sensitive
7,CC[C@H]1OC(=O)[C@H](C)[C@@H](O[C@H]2C[C@@](C)(OC)[C@@H](O)[C@H](C)O2)[C@H](C)[C@@H](O[C@@H]2O[C@H](C)C[C@H](N(C)C)[C@H]2O)[C@](C)(O)C[C@@H](C)C(=O)[C@H](C)[C@@H](O)[C@]1(C)O [Erythromycin],resistant
8,NCC[C@H](O)C(=O)N[C@@H]1C[C@H](N)[C@@H](O[C@H]2O[C@H](CN)[C@@H](O)[C@H](O)[C@H]2O)[C@H](O)[C@H]1O[C@H]1O[C@H](CO)[C@@H](O)[C@H](N)[C@H]1O [Amikacin],sensitive
